The text below walks through data of PMC7773657, “Identification of Compounds With Glucocorticoid Sparing Effects on Suppression of Chemokine and Cytokine Production by Rheumatoid Arthritis Fibroblast-Like Synoviocytes” (Frontiers in Pharmacology, 2020).

One experiment relates to THP-1 cells. Kind of experiment: TNF stimulated CXCL8 release by THP-1 cells (ELISA). The class given is cell-based. As to conditions: Homo sapiens, TNF 2 ng/ml, overnight, single agents (Figure 5A), read-out: IC50 for TNF stimulated CXCL8 release (titration experiment with DEX). As for the experimental part:
THP-1 cells (10^5 cells/200 µL/well) and RA FLS (10^4/200 µL/well) were plated in 96 well plates and pre-treated with compound or vehicle for 1 h and then stimulated with either LPS (10 ng/ml), IL-1ß (2 ng/ml) or TNF (2 ng/ml for THP-1 and 1 ng/ml for RA FLS). After 18 h of incubation, supernatants were collected and the levels of cytokines and chemokines in the culture supernatants were measured by ELISA according to the manufacturer’s protocols (R&D systems, Minneapolis, MN).
Drug synergy analysis was performed using Isobologram plots which were calculated according to reported procedures using methods of Chou-Talalay ([Chou and Talalay, 1984]) to compute IC50 and determine synergism. IC50 is computed from the median effect equation. Synergism analysis is carried out using the Combination index (CI)-isobol method. Data analysis was performed using the CompuSyn software available on combisyn.com. Detailed methodology was used as described in a prior report ([Chou, 2006]). […] This is followed by CI-isobol method to quantitatively assess the synergism between these inhibitor drugs. […] From the median effect equation, the estimated dose (i.e., D) necessary to produce the inhibition (i.e. Fa, Fu) obtained by the combination was calculated. […]
Background: ELISA stands for enzyme-linked immunosorbent assay.

For a further experiment, the system named is NF-κB. As to the kind of experiment: NF-κB activation assay in LPS stimulated CellSensor NF-κB-bla THP-1 reporter cells (FRET). The class given is cell-based, human. As to conditions: THP-1 CellSensor NF-κB-bla reporter cells, LPS 10 ng/ml, 5 h and 16 h. As for the experimental part:
The CellSensor® NF-κB-bla THP-1 cell line has a stably integrated ß-lactamase reporter gene under the control of the nuclear factor kappa B (NF-κB) response element. […] In the presence of ß-lactamase, CCF4 was enzymatically cleaved and excitation at 409 nm produced a blue fluorescence signal (at 450 nm). The CellSensor® NF-κB-bla THP-1 cells were dispersed in 96-well plates (5 × 10^4 cells/200 µL/well) and incubated for 4 h. […] After incubation, the ß-lactamase substrate mixture (prepared according to the manufacturer’s protocol) was added to each well. Plates were incubated at room temperature in the dark for 2 h. Fluorescence was measured on a Tecan Infinite M200 plate reader (Tecan, Mannedorf, Switzerland) at an excitation wavelength of 405 nm and emission wavelengths of 465 and 535 nm. Emission ratios are calculated by dividing values from emission wavelength of 465 nm by those from emission wavelength of 535 nm. The response ratio was calculated as follows [(emission ratio of a test well)/average emission ratio of wells with vehicle (0.5% DMSO)] and values were normalized to the LPS control treated wells [response ratio of the compound/response ratio of LPS].

As for `C[C@@H]1C[C@H]2[C@@H]3CCC4=CC(=O)C=C[C@]4(C)[C@@]3(F)[C@@H](O)C[C@]2(C)[C@@]1(O)C(=O)CO` [DEX, dexamethasone], the IC50 in the experiment with THP-1 cells came out at 0.3 µM. In the experiment on NF-κB, the “Inhibition of LPS induced NF-κB activity” value is “inhibited NF-κB activity more potently at 16 h than 5 h”. As to `NC(=O)Nc1sc(-c2ccc(F)cc2)cc1C(N)=O` [UTC, 5-(4-fluorophenyl)-2-ureidothiophene-3 carboxylic acid amide], the “Inhibition of LPS induced NF-κB activity” value in the experiment with NF-κB is “inhibited NF-κB activity at both time points”.
